Measured values published in patent US10597388B2, “Pyridazinone herbicides” (FMC CORPORATION, priority 2014, dated 2020).

Experiments:
Experiment in all cases: Test E greenhouse herbicide test, pre- and postemergence
Format in all cases: in vivo
[1] = tested on: pigweed, palmer (palmer pigweed, Amaranthus palmeri)
Method in brief: (§1)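 Visual rating vs untreated controls, 0 = no effect, 100 = complete control, after 14–21 d greenhouse. Pre: seeded silt loam treated with surfactant-containing solvent formulation. Post: 1–4-leaf plants (2–18 cm) in peat/vermiculite medium.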

[2] = tested on: johnsongrass (Sorghum halepense); conditions: Preemergence
Method in brief: as §1

corn (Zea mays) = tested on: corn (Zea mays)
Method in brief: as §1

[3] = tested on: panicum, fall (fall panicum, Panicum dichotomiflorum)
Method in brief: as §1

[4] = tested on: nightshade (eastern black nightshade, Solanum ptycanthum); conditions: Preemergence
Method in brief: as §1

[5] = tested on: ragweed (common ragweed, Ambrosia elatior)
Method in brief: as §1

soybean (Glycine max) = tested on: soybean (Glycine max)
Method in brief: as §1

[6] = tested on: arrowleaf sida (Sida rhombifolia)
Method in brief: as §1

[7] = tested on: beggarticks (hairy beggarticks, Bidens pilosa)
Method in brief: as §1

[8] = tested on: crabgrass, Brazilian (Brazilian crabgrass, Digitaria horizontalis)
Method in brief: as §1

[9] = tested on: sandbur (southem sandbur, Cenchrus echinatus)
Method in brief: as §1

[10] = tested on: velvetleaf (Abutilon theophrasti); conditions: Preemergence
Method in brief: as §1

[11] = tested on: lambsquarters (Chenopodium album); conditions: Preemergence
Method in brief: as §1

kochia (Kochia scoparia) = tested on: kochia (Kochia scoparia)
Method in brief: as §1

[12] = tested on: surinam grass (Brachiaria decumbens); conditions: Preemergence
Method in brief: as §1

[13] = tested on: foxtail, giant (giant foxtail, Setaria faberii); conditions: Preemergence
Method in brief: as §1

[14] = tested on: goosegrass (Eleusine indica); conditions: Preemergence
Method in brief: as §1

[15] = 62 g ai/ha, Postemergence, scale 0 to 100 (0 no effect, 100 complete control)
[16] = 125 g ai/ha, Postemergence, scale 0 to 100 (0 no effect, 100 complete control)
[17] = 125 g ai/ha, Preemergence, scale 0 to 100 (0 no effect, 100 complete control)
[18] = Postemergence, 16 g ai/ha, visual, scale 0 no effect to 100 complete control
[19] = Postemergence, 31 g ai/ha, visual, scale 0 no effect to 100 complete control
[20] = Preemergence, 16 g ai/ha, scale 0 to 100, 0 no effect, 100 complete control
[21] = Preemergence, 31 g ai/ha, scale 0 to 100, 0 no effect, 100 complete control
[22] = 125 g ai/ha, scale 0 to 100 (0 no effect, 100 complete control)
[23] = 16 g ai/ha, scale 0 to 100, 0 no effect, 100 complete control
[24] = 31 g ai/ha, scale 0 to 100, 0 no effect, 100 complete control
[25] = 62 g ai/ha, Preemergence, scale 0 to 100 (0 no effect, 100 complete control)
[26] = 62 g ai/ha, scale 0 to 100 (0 no effect, 100 complete control)

For `CCC(=O)Oc1c(C)nn(C)c(=O)c1-c1c(C)sc2ccc(Cl)cc12` [Compound 109], the “Plant response rating, Pigweed, Palmer” value [1, 15] was 65, the “Plant response rating, Pigweed, Palmer” value [1, 16] was 100 and the “Plant response rating, Pigweed, Palmer” value [1, 17] was 85. The “Plant response rating, Pigweed, Palmer” value [1, 18] was 60, the “Plant response rating, Pigweed, Palmer” value [1, 19] was 50 and the “Plant response rating, Pigweed, Palmer” value [1, 20] was 0. For the same compound, the “Plant response rating, Pigweed, Palmer” value [1, 21] was 20, the “Plant response rating, Johnsongrass” value [2, 22] was 40 and the “Plant response rating, Johnsongrass” value [2, 23] was 0. The “Plant response rating, Johnsongrass” value [2, 24] was 0, the “Plant response rating, Corn” value (corn (Zea mays); [15]) was 10 and the “Plant response rating, Corn” value (corn (Zea mays); [25]) was 0. The “Plant response rating, Corn” value (corn (Zea mays); [16]) was 20, the “Plant response rating, Corn” value (corn (Zea mays); [17]) was 0 and the “Plant response rating, Corn” value (corn (Zea mays); [18]) was 0. For the same compound, the “Plant response rating, Corn” value (corn (Zea mays); [19]) was 0, the “Plant response rating, Corn” value (corn (Zea mays); [20]) was 0 and the “Plant response rating, Corn” value (corn (Zea mays); [21]) was 0. For the same compound, the “Plant response rating, Panicum, Fall” value [3, 15] was 65, the “Plant response rating, Panicum, Fall” value [3, 16] was 80 and the “Plant response rating, Panicum, Fall” value [3, 17] was 95. The “Plant response rating, Panicum, Fall” value [3, 18] was 50, the “Plant response rating, Panicum, Fall” value [3, 19] was 60 and the “Plant response rating, Panicum, Fall” value [3, 20] was 75. For the same compound, the “Plant response rating, Panicum, Fall” value [3, 21] was 80, the “Plant response rating, Nightshade” value [4, 22] was 98 and the “Plant response rating, Nightshade” value [4, 23] was 25. For the same compound, the “Plant response rating, Nightshade” value [4, 24] was 65, the “Plant response rating, Ragweed” value [5, 15] was 90 and the “Plant response rating, Ragweed” value [5, 16] was 95. The “Plant response rating, Ragweed” value [5, 17] was 100, the “Plant response rating, Ragweed” value [5, 18] was 80 and the “Plant response rating, Ragweed” value [5, 19] was 85. The “Plant response rating, Ragweed” value [5, 20] was 0, the “Plant response rating, Ragweed” value [5, 21] was 5 and the “Plant response rating, Soybean” value (soybean (Glycine max); [16]) was 20. The “Plant response rating, Soybean” value (soybean (Glycine max); [17]) was 0, the “Plant response rating, Soybean” value (soybean (Glycine max); [18]) was 0 and the “Plant response rating, Soybean” value (soybean (Glycine max); [19]) was 0. The “Plant response rating, Soybean” value (soybean (Glycine max); [20]) was 0, the “Plant response rating, Soybean” value (soybean (Glycine max); [21]) was 0 and the “Plant response rating, Arrowleaf Sida” value [6, 15] was 60. The “Plant response rating, Arrowleaf Sida” value [6, 25] was 30, the “Plant response rating, Arrowleaf Sida” value [6, 16] was 80 and the “Plant response rating, Arrowleaf Sida” value [6, 17] was 35. For the same compound, the “Plant response rating, Arrowleaf Sida” value [6, 18] was 50, the “Plant response rating, Arrowleaf Sida” value [6, 19] was 65 and the “Plant response rating, Arrowleaf Sida” value [6, 20] was 40. The “Plant response rating, Arrowleaf Sida” value [6, 21] was 35, the “Plant response rating, Beggarticks” value [7, 15] was 85 and the “Plant response rating, Beggarticks” value [7, 25] was 100. The “Plant response rating, Beggarticks” value [7, 16] was 100, the “Plant response rating, Beggarticks” value [7, 17] was 100 and the “Plant response rating, Beggarticks” value [7, 18] was 80. The “Plant response rating, Beggarticks” value [7, 19] was 90, the “Plant response rating, Beggarticks” value [7, 20] was 20 and the “Plant response rating, Beggarticks” value [7, 21] was 75. The “Plant response rating, Crabgrass, Brazil” value [8, 15] was 30, the “Plant response rating, Crabgrass, Brazil” value [8, 25] was 40 and the “Plant response rating, Crabgrass, Brazil” value [8, 16] was 50. For the same compound, the “Plant response rating, Crabgrass, Brazil” value [8, 17] was 70, the “Plant response rating, Crabgrass, Brazil” value [8, 18] was 10 and the “Plant response rating, Crabgrass, Brazil” value [8, 19] was 40. For the same compound, the “Plant response rating, Crabgrass, Brazil” value [8, 20] was 70, the “Plant response rating, Crabgrass, Brazil” value [8, 21] was 60 and the “Plant response rating, Sandbur” value [9, 16] was 70. The “Plant response rating, Sandbur” value [9, 17] was 75, the “Plant response rating, Sandbur” value [9, 18] was 60 and the “Plant response rating, Sandbur” value [9, 19] was 40. The “Plant response rating, Sandbur” value [9, 20] was 0, the “Plant response rating, Sandbur” value [9, 21] was 40 and the “Plant response rating, Velvetleaf” value [10, 22] was 65. For the same compound, the “Plant response rating, Velvetleaf” value [10, 23] was 0, the “Plant response rating, Velvetleaf” value [10, 24] was 0 and the “Plant response rating, Lambsquarters” value [11, 22] was 98. For the same compound, the “Plant response rating, Lambsquarters” value [11, 23] was 0, the “Plant response rating, Lambsquarters” value [11, 24] was 95 and the “Plant response rating, Kochia” value (kochia (Kochia scoparia); [15]) was 95. For the same compound, the “Plant response rating, Kochia” value (kochia (Kochia scoparia); [16]) was 100, the “Plant response rating, Kochia” value (kochia (Kochia scoparia); [17]) was 100 and the “Plant response rating, Kochia” value (kochia (Kochia scoparia); [18]) was 80. For the same compound, the “Plant response rating, Kochia” value (kochia (Kochia scoparia); [19]) was 95, the “Plant response rating, Kochia” value (kochia (Kochia scoparia); [20]) was 0 and the “Plant response rating, Kochia” value (kochia (Kochia scoparia); [21]) was 10. For the same compound, the “Plant response rating, Surinam Grass” value [12, 22] was 40, the “Plant response rating, Surinam Grass” value [12, 23] was 0 and the “Plant response rating, Surinam Grass” value [12, 24] was 30. The “Plant response rating, Foxtail, Giant” value [13, 26] was 40, the “Plant response rating, Foxtail, Giant” value [13, 22] was 80 and the “Plant response rating, Foxtail, Giant” value [13, 23] was 0. The “Plant response rating, Foxtail, Giant” value [13, 24] was 35, the “Plant response rating, Goosegrass” value [14, 26] was 25 and the “Plant response rating, Goosegrass” value [14, 22] was 50. The “Plant response rating, Goosegrass” value [14, 23] was 0 and the “Plant response rating, Goosegrass” value [14, 24] was 20.
